Measurements taken from the NIST ThermoML archive (doi:10.1021/je100823t).

Assays:
[1] = xn = mol fraction of the nth substance listed; settings: 101 kPa, Liquid; for viscosity: Capillary tube (Ostwald / Ubbelohde) method; for mass density: Pycnometric method
[2] = 101 kPa, Liquid; for viscosity: Capillary tube (Ostwald / Ubbelohde) method; for mass density: Pycnometric method

Cc1cccc(C)c1 [1,3-dimethylbenzene] + CCCCCCO
[1]
Settings | mass density, 308.15 K [kg/m3] | mass density, 318.15 K [kg/m3] | viscosity, 308.15 K [mPa·s] | viscosity, 318.15 K [mPa·s]
x2 = 0 | 851.3 | 842.7 | 0.521 | 0.47
x2 = 0.1002 | 846.4 | 837.6 | 0.562 | 0.502
x2 = 0.2002 | 841.7 | 833 | 0.638 | 0.561
x2 = 0.3007 | 837.2 | 828.7 | 0.742 | 0.643
x2 = 0.4001 | 833 | 824.6 | 0.875 | 0.747
x2 = 0.5 | 828.8 | 820.6 | 1.057 | 0.885
x2 = 0.5999 | 824.7 | 816.6 | 1.298 | 1.066
x2 = 0.6999 | 820.6 | 812.7 | 1.629 | 1.306
x2 = 0.7999 | 816.6 | 808.8 | 2.072 | 1.623
x2 = 0.8999 | 812.6 | 805 | 2.643 | 2.031

CCCCCCO [hexan-1-ol] + Cc1ccc(C)cc1
[1]
Settings | mass density, 308.15 K [kg/m3] | mass density, 318.15 K [kg/m3] | viscosity, 308.15 K [mPa·s] | viscosity, 318.15 K [mPa·s]
x1 = 0.1001 | 843.6 | 834.9 | 0.578 | 0.513
x1 = 0.2001 | 839.4 | 830.8 | 0.647 | 0.567
x1 = 0.2999 | 835.4 | 826.9 | 0.742 | 0.643
x1 = 0.4001 | 831.4 | 823.1 | 0.87 | 0.743
x1 = 0.5009 | 827.5 | 819.3 | 1.046 | 0.877
x1 = 0.5999 | 823.7 | 815.6 | 1.279 | 1.051
x1 = 0.6999 | 819.9 | 811.9 | 1.602 | 1.287
x1 = 0.8 | 816.1 | 808.3 | 2.042 | 1.604
x1 = 0.9 | 812.3 | 804.7 | 2.618 | 2.017
x1 = 1 | 808.5 | 801.2 | 3.318 | 2.518

Cc1ccc(C)cc1 [1,4-dimethylbenzene] + CCCCCCO
[1], x2 = 0
Settings | mass density [kg/m3] | viscosity [mPa·s]
308.15 K | 848.2 | 0.541
318.15 K | 839.5 | 0.486

CCCCCCO [hexan-1-ol]
[2]
Settings | mass density [kg/m3] | viscosity [mPa·s]
308.15 K | 808.5 | 3.318
318.15 K | 801.2 | 2.518

CCCCCCO [hexan-1-ol] + Cc1ccccc1C
[1], x1 = 1
Settings | mass density [kg/m3] | viscosity [mPa·s]
308.15 K | 808.5 | 3.318
318.15 K | 801.2 | 2.518

Cc1ccccc1C [1,2-dimethylbenzene]
[2]
Settings | mass density [kg/m3] | viscosity [mPa·s]
308.15 K | 866.7 | 0.666
318.15 K | 858.4 | 0.591

Cc1ccccc1C [1,2-dimethylbenzene] + CCCCCCO
[1]
Settings | mass density, 308.15 K [kg/m3] | mass density, 318.15 K [kg/m3] | viscosity, 308.15 K [mPa·s] | viscosity, 318.15 K [mPa·s]
x2 = 0 | 866.7 | 858.4 | 0.666 | 0.591
x2 = 0.0999 | 860.1 | 851.7 | 0.709 | 0.621
x2 = 0.1999 | 853.9 | 845.6 | 0.789 | 0.683
x2 = 0.2999 | 847.9 | 839.7 | 0.899 | 0.768
x2 = 0.4001 | 842.1 | 833.9 | 1.043 | 0.879
x2 = 0.4997 | 836.4 | 828.3 | 1.23 | 1.02
x2 = 0.6 | 830.7 | 822.7 | 1.475 | 1.199
x2 = 0.7 | 825.1 | 817.2 | 1.799 | 1.431
x2 = 0.8 | 819.5 | 811.8 | 2.217 | 1.73
x2 = 0.8999 | 814 | 806.4 | 2.738 | 2.104

Cc1cccc(C)c1 [1,3-dimethylbenzene]
[2]
Settings | mass density [kg/m3] | viscosity [mPa·s]
308.15 K | 851.3 | 0.521
318.15 K | 842.7 | 0.47

Cc1ccc(C)cc1 [1,4-dimethylbenzene]
[2]
Settings | mass density [kg/m3] | viscosity [mPa·s]
308.15 K | 848.2 | 0.541
318.15 K | 839.5 | 0.486

CCCCCCO [hexan-1-ol] + Cc1cccc(C)c1
[1], x1 = 1
Settings | mass density [kg/m3] | viscosity [mPa·s]
308.15 K | 808.5 | 3.318
318.15 K | 801.2 | 2.518
